Where two headings read alike, the source gives them in different places.
What was measured:
LS174T cells = assay: MTT cytotoxicity test in LS174T cells; settings: for viability of LS174T cells (in words): MTT, 24 h, LAN up to 100 µM, OME up to 250 µM
Procedure: (§1) A stably transfected gene reporter cell line AZ-GR was used for assessment of GR transcriptional activity. A transiently transfected LS174T human colon adenocarcinoma cells were used for assessment of PXR transcriptional activity. […] The reporter plasmid was transiently transfected to LS174T cells by lipofection (FuGENE 6) with 300 ng/well of p3A4-luc reporter in 24-well plates. Cells were incubated for 24 h with tested compounds and/or vehicle (DMSO; 0.1% v/v), in the presence or absence of RIF (10 µM; LS174T cells) or DEX (100 nM; AZ-GR cells). After the treatments, cells were lysed and luciferase activity was measured. In parallel, cell viability was determined by conventional MTT test.
(§2) Gene reporter assays were performed in two different experimental layouts.
(§3) Treatments were performed in triplicates. Upper panels: MTT test was performed and absorbance was measured at 540 nm. The data are the mean from experiments from three consecutive passages of cells and are expressed as a percentage of viability of control cells. The values of IC50 were calculated and are indicated in a figure. […] The data are the mean from experiments from four consecutive passages of cells and are expressed as a percentage of maximal induction attained by RIF. […] The data are the mean from experiments from four consecutive passages of cells and are expressed as a fold induction of luciferase activity over control cells.

AZ-GR cells = assay: MTT cytotoxicity test in AZ-GR cells
Procedure: as §1
as §3, with “Model activator of GR was dexamethasone (DEX; 0.1 µM). Treatments” for “Treatments”

[1] = molecular target: T1, glucocorticoid receptor GR (Homo sapiens, UniProt P04150); settings: AZ-GR cells, 24 h, agonist mode
T1 sequence (P04150 1-777): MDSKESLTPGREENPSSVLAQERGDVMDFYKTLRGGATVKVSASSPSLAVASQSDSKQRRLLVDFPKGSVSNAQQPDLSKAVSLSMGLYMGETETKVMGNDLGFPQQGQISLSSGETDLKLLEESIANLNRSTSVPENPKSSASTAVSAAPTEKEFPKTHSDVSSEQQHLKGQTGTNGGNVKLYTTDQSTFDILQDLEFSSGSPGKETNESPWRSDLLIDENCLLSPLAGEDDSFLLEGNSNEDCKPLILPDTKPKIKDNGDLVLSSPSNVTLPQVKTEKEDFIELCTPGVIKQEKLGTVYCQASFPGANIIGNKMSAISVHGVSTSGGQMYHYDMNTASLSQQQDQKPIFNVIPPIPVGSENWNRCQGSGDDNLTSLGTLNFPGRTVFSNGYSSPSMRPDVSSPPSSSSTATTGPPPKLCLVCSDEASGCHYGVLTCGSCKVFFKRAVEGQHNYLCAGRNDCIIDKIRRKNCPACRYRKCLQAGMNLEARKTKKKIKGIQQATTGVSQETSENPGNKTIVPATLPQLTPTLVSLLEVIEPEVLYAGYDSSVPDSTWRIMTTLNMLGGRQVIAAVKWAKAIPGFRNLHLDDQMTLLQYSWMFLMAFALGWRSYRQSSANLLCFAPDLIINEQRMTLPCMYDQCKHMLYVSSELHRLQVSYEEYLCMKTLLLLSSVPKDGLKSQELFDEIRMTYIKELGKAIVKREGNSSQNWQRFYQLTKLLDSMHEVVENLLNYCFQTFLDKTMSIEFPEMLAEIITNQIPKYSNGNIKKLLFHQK
Procedure: as §1
as §3, with “Model activator of GR was dexamethasone (DEX; 0.1 µM). Treatments” for “Treatments”

[2] = test system: CYP3A4 protein in HepG2 cells; assay: CYP3A4 protein expression (Western blot) in HepG2 cells; settings: 48 h
Procedure: Total protein extracts were prepared as described elsewhere. SDS–PAGE gels (10%) were run on a BioRad apparatus according to the general procedure followed by the protein transfer onto PVDF membrane. The membrane was saturated with 5% non-fat dried milk for 1 h at room temperature. […] Chemiluminescent detection was performed using horseradish peroxidase-conjugated secondary antibodies (Santa Cruz Biotechnology) and Western blotting Luminol kit (Santa Cruz Biotechnology). The density of bands was measured by densitometry.
Density of bands was quantified by densitometry.

[3] = test system: CYP3A4-mediated luciferase activity in HepG2 cells; set-up: method as in PMID 12235278, PMID 20832446; settings: HepG2 cells reporter gene assay; cited from earlier work
[4] = test system: CYP3A4 mRNA in primary human hepatocytes; set-up: method as in PMID 12695340; settings: 100 µM–200 µM OME; cited from earlier work
[5] = MTT cytotoxicity test in LS174T cells; settings: human, LS174T cells
Procedure: as §1, §2, §3

[6] = molecular target: T1, glucocorticoid receptor GR; assay: GR gene reporter assay in AZ-GR cells, antagonist mode with dexamethasone; assay type: cell-based; settings: in the presence of DEX 0.1 µM, 24 h, read-out: GR activation, antagonist mode IC50
Procedure: as §1
as §3, with “Model activator of GR was dexamethasone (DEX; 0.1 µM). Treatments” for “Treatments”

[7] = MTT cytotoxicity test in AZ-GR cells; settings: human, AZ-GR cells (stably transfected GR gene reporter cell line), cytotoxicity in AZ-GR cells IC50, MTT, 24 h
Procedure: as §1
as §3, with “Model activator of GR was dexamethasone (DEX; 0.1 µM). Treatments” for “Treatments”

pregnane X receptor PXR = molecular target: T2, pregnane X receptor PXR (Homo sapiens, UniProt O75469); assay: PXR gene reporter assay (p3A4-luc in LS174T cells), agonist mode
T2 sequence (O75469 1-434): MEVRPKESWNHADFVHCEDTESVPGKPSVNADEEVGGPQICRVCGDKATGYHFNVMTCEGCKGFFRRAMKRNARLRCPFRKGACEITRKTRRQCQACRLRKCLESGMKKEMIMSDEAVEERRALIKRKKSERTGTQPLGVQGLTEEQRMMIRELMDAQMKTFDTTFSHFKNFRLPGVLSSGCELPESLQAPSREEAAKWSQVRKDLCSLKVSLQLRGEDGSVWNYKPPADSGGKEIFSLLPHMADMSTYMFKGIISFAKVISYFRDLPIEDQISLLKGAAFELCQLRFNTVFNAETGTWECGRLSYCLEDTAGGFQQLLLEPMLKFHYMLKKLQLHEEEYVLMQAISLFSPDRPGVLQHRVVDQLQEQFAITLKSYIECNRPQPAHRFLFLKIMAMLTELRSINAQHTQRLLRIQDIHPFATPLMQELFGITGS
Procedure: as §1, §2, §3

Cc1c(OCC(F)(F)F)ccnc1C[S+]([O-])c1nc2ccccc2[nH]1 (racemic) [rac-LAN, rac-lansoprazole]
IC50 (LS174T cells): > 100 µM | IC50 (AZ-GR cells): 200 ± 19.5 µM

COc1ccc2[nH]c([S+]([O-])Cc3ncc(C)c(OC)c3C)nc2c1 (racemic) [rac-OME, rac-omeprazole]
IC50 (LS174T cells): > 250 µM | IC50 (AZ-GR cells): > 250 µM

Cc1c(OCC(F)(F)F)ccnc1C[S+]([O-])c1nc2ccccc2[nH]1 (stereo not drawn) [LAN, lansoprazole]
viability of LS174T cells (in words) (LS174T cells): did not observe significant decline in viability | effect on basal activity of GR (in words) [1]: weak effects on basal activity of GR | induction of CYP3A4 protein (in words) [2]: induced CYP3A4 protein

COc1ccc2[nH]c([S+]([O-])Cc3ncc(C)c(OC)c3C)nc2c1 (stereo not drawn) [OME, omeprazole]
viability of LS174T cells (in words) (LS174T cells): did not observe significant decline in viability | induction of CYP3A4-mediated luciferase activity (in words) [3]: showed an induction of CYP3A4-mediated luciferase activity | CYP3A4 mRNA expression induction [4]: 4 fold

Cc1c(OCC(F)(F)F)ccnc1C[S@@+]([O-])c1nc2ccccc2[nH]1 [R-LAN, R-lansoprazole]
IC50 at 24 h [5]: > 100 µM | IC50 [6]: ~100 µM | IC50 at 24 h [7]: 184 ± 2.9 µM

COc1ccc2nc([S@+]([O-])Cc3ncc(C)c(OC)c3C)[nH]c2c1 [R-OME, R-omeprazole]
IC50 (LS174T cells): > 250 µM | PXR activation, agonist mode (in words) (pregnane X receptor PXR; 24 h, LS174T cells with p3A4-luc): strongly activated PXR in concentrations 100 µM and 250 µM | EC50 (pregnane X receptor PXR; read-out: PXR activation, agonist mode EC50, 24 h, LS174T cells with p3A4-luc, absence of RIF): 25.3 ± 3.1 µM | IC50 (AZ-GR cells): > 250 µM

Cc1c(OCC(F)(F)F)ccnc1C[S@+]([O-])c1nc2ccccc2[nH]1 [S-LAN, S-lansoprazole]
IC50 (LS174T cells): > 100 µM | induction of CYP3A4 protein (in words) [2]: strongest effects | IC50 (AZ-GR cells): 200 ± 6.5 µM

COc1ccc2nc([S@@+]([O-])Cc3ncc(C)c(OC)c3C)[nH]c2c1 [S-OME, S-omeprazole]
IC50 at 24 h [5]: > 250 µM | EC50 (pregnane X receptor PXR): 2 ± 0.6 µM | PXR activation, agonist mode (in words) (pregnane X receptor PXR; human, 24 h): activated PXR in concentrations 10 µM and 100 µM with drop of activation at 250 µM | IC50 at 24 h [7]: 214 µM
